Source: paper PMC3223156, “Designer Lipid-Like Peptides: A Class of Detergents for Studying Functional Olfactory Receptors Using Commercial Cell-Free Systems” (PLoS ONE, 2011)

How the values were obtained:
Experiment in all cases: microscale thermophoresis, native tryptophan fluorescence, Hill fit n = […]
Type in all cases: binding
Conditions in all cases: read-out: Measured EC50
[1] = target: T1, mOR174-9 (Mus musculus, UniProt Q920P2)
T1 construct: gene Or5d18; full length; C-terminal GSSG linker plus rho1D4 tag (TETSQVAPA); E. coli cell-free expression in Brij-35, purified in FC-14
T1 sequence (Q920P2 1-313): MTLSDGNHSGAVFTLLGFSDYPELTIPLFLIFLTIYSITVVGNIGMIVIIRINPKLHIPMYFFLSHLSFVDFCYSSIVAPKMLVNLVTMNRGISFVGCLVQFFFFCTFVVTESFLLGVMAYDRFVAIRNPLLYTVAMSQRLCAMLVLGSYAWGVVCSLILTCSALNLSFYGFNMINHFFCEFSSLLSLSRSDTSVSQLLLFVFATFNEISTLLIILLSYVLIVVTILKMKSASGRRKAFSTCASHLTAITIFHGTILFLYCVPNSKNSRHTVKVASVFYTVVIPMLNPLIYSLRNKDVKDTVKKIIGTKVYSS

[2] = target: T2, mOR174-4 (Mus musculus, UniProt Q920P1)
T2 construct: gene Or5d47; full length; C-terminal GSSG linker plus rho1D4 tag (TETSQVAPA); E. coli cell-free expression in Brij-35, purified in FC-14
T2 sequence (Q920P1 1-318): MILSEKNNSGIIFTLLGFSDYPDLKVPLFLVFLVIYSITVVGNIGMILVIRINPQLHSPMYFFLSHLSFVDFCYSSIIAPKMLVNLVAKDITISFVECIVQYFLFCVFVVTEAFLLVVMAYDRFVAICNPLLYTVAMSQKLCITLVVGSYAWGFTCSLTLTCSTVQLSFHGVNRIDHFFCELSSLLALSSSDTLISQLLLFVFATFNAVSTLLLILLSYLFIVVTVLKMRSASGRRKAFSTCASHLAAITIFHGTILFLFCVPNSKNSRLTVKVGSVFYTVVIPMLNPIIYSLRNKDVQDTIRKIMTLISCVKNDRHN

[3] = target: T3, mOR103-15 (Mus musculus, UniProt Q9QWU6)
T3 construct: gene Or6a2; full length; C-terminal GSSG linker plus rho1D4 tag (TETSQVAPA); E. coli cell-free expression in Brij-35, purified in FC-14
T3 sequence (Q9QWU6 1-327): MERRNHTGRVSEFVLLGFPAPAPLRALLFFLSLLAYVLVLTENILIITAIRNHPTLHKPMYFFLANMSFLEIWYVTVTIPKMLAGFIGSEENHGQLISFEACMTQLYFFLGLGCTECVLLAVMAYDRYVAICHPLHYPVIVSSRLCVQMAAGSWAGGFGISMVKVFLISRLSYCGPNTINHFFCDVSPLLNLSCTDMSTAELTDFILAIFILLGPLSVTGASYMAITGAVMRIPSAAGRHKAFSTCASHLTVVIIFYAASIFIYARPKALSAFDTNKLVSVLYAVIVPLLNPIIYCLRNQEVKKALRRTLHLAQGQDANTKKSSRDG

SMILES | EC50 [1] [µM] | EC50 [2] [µM] | EC50 [3] [µM]
CCOc1cc(C=O)ccc1O [Ethyl Vanillin] | 4.9 ± 3.5 | 7 ± 2 | –
CCCCCCC=O [Heptanal] | – | – | 2 ± 0.7
